Data taken from US20190292524A1, “METHODS FOR CANCER STEM CELL (CSC) EXPANSION” (TRANSGENEX NANOBIOTECH, INC., priority 2016, published 2019).

Tested on: MCF-7 cells
Assay: CD44+ CD24− CSC population in MCF-7 tumoroids by flow cytometry
Type: cell-based, human
Details: regular growth medium supplemented with 50 μM cobalt chloride, first-generation MCF-7 tumoroids, day 6
Experimental: We first plated MCF-7 cells in regular growth medium, consisting of RPMI-1640 supplemented with 10% fetal bovine serum (FBS) and 1× penicillin-streptomycin. The cells were plated at ^˜7,000 cells per scaffold in a 96-well cell culture plate. Fresh medium was added on the second day post-seeding and on day 6 post-seeding, the tumoroids were visualized using NucBlue® dye. After confirming the presence of healthy looking tumoroids, they were detached from the scaffold and processed for single cell suspensions using accutase:citrate solution (1:1 ratio). The single cell suspension was then counted for viability and stained with human anti-CD44-APC-cy7 and anti-CD24-APC. DAPI was used to differentiate the live cells within the single cell population and the CD44^+ CD24^− cell population was determined from the live cells using flow cytometry.
We first grew first-generation tumoroids, as described before. The first-generation tumoroids were then processed for single-cell suspensions and plated at ^˜8,000 cells per scaffold in a 96-well cell culture plate. […]
Because hypoxia appears to be required for the maintenance of CSCs, we wanted to test this in our 3D model using cobalt chloride, a known inducer of hypoxia. […] DAPI was used to differentiate the live cells within the single-cell population and the CD44^+ CD24^− cell population was determined using flow cytometry. […]

SMILES: [Cl][Co][Cl] [cobalt chloride]
- change in percentage of CSCs: did not change the percentage of CSCs
